Consider one molecule from ChEMBL document CHEMBL4118122, “Identification and biological evaluation of thiazole-based inverse agonists of RORγt” (Bioorg Med Chem Lett, 2018).

The target of one series is T1, Cytochrome P450 1A2 (Homo sapiens, UniProt P05177).
T1 sequence (P05177 whole entry): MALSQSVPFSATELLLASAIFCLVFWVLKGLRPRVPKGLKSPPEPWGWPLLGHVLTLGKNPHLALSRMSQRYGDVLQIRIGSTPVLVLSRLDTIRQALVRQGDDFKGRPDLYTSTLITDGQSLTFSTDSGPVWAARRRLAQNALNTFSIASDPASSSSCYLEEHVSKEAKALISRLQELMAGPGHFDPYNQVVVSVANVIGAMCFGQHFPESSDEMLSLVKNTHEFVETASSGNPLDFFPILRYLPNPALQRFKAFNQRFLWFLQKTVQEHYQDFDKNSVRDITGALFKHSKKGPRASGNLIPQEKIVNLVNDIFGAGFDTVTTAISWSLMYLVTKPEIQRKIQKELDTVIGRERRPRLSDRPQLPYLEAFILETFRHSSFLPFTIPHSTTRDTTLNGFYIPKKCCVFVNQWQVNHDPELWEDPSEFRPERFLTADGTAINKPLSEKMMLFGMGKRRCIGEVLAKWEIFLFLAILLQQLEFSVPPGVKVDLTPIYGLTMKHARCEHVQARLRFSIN
The experiment in a line: Inhibition of CYP1A2 (unknown origin). It counts as ADME.

The target of series [1] is Adenosine receptor A1 (Homo sapiens) (UniProt P30542). The experiment in a line: Displacement of [3H]-DPCPX from human recombinant adenosine A1 receptor at 10 uM after 60 mins by scintillation counting analysis relative to control. In general terms: Loss of bound radioactivity is the signal in a displacement assay; it reports binding, not function.
Adenosine receptor A1 (Homo sapiens), sequence (P30542 whole entry): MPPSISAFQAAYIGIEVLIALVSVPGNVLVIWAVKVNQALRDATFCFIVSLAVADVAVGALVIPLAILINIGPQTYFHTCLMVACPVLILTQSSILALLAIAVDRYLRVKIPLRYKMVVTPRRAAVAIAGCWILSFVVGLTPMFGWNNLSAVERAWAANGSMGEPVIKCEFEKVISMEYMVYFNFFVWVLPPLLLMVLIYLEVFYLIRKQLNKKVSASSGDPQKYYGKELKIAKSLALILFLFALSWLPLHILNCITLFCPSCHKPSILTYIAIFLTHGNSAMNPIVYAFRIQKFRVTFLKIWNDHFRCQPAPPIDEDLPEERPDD
Series [2] has as its target Beta-1 adrenergic receptor (Homo sapiens, UniProt P08588). Nature of the series: Displacement of [3H](-)CGP 12177 from human beta1 adrenoceptor after 60 mins by scintillation counting analysis.
Series [3] addresses Kappa-type opioid receptor (Homo sapiens, UniProt P41145). Nature of the series: Displacement of [3H]U69593 from human kappa receptor after 60 mins by scintillation counting analysis.
In series [4] the target is 5-hydroxytryptamine receptor 5A (Homo sapiens, UniProt P47898). The experiment in a line: Displacement of [3H]LSD from human recombinant 5-HT5a receptor after 120 mins by scintillation counting analysis.
In series [5] the target is T2, Nuclear receptor ROR-gamma (Homo sapiens, UniProt P51449).
T2 sequence (P51449 whole entry): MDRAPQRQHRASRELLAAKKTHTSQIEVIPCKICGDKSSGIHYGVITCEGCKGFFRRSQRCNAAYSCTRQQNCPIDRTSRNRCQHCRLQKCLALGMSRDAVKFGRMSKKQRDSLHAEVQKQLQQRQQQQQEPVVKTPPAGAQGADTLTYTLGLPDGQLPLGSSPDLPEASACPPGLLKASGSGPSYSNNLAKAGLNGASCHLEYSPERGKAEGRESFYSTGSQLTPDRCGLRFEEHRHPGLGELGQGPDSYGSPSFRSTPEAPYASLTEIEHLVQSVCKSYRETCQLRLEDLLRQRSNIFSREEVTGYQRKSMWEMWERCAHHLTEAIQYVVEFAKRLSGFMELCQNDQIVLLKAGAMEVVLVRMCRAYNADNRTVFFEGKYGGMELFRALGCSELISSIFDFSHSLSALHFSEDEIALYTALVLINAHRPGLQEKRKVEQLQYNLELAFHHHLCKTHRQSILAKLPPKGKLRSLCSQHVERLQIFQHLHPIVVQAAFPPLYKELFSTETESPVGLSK
Nature of the series: Binding affinity to recombinant human RORgamma LBD (237 to 497 residues) expressed in Escherichia coli BL21 (DE3) GOLD by 1,8-ANS dye-based thermofluor assay. A general note: DSF heats the sample and reads unfolding from a dye or from intrinsic fluorescence.

For series [6], the target named is Sodium-dependent noradrenaline transporter (Homo sapiens, UniProt P23975). The experiment in a line: Displacement of [3H]nisoxetine from recombinant human norepinephrine transporter after 120 mins by scintillation counting analysis.
Sodium-dependent noradrenaline transporter, sequence (P23975 whole entry, the tested form may be a part): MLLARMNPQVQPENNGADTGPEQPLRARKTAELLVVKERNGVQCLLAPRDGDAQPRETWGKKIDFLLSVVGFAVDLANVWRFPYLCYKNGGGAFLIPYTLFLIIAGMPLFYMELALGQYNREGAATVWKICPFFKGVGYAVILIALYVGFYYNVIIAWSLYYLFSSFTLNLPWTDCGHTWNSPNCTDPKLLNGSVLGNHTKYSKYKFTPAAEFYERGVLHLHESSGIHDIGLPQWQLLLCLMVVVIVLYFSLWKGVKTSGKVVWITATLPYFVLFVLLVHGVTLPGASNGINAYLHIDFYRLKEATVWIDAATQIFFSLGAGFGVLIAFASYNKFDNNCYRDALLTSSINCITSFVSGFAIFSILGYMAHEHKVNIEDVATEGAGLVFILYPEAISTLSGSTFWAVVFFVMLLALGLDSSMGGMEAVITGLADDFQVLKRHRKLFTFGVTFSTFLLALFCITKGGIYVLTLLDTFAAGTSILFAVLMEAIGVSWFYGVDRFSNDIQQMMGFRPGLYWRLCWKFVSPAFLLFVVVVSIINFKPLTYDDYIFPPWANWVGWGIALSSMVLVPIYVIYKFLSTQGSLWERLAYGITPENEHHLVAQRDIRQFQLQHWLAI
Series [7] deals with T2, Nuclear receptor ROR-gamma. Nature of the series: Inverse agonist activity at human GAL4 DBD-fused RORgammat LBD (237 to 497 residues) expressed in HEK293T cells assessed as reduction in ROR mediated transcriptional activity after 24 hrs by dual glo luciferase reporter gene assay. In kind it is cell-based.
Series [8] concerns the target Adrenergic receptor alpha-2 (Rattus norvegicus, UniProt P22086+P19328+P22909). The experiment in a line: Displacement of [3H]-RX 821002 from rat alpha2 adrenoceptor after 60 mins by scintillation counting analysis. It counts as protein assay.
For another series, the species on record is Rattus norvegicus. The experiment in a line: Displacement of [3H]D 888 from rat brain L-type calcium channel verapamil binding site at 10 uM after 120 mins by scintillation counting analysis relative to control.
Series [9] in a line: Thermodynamic solubility of the compound in fasted state simulated intestinal […] after 2 to 5 days by UV-HPLC analysis. It counts as physicochemical. The following applies: read-out: Therm_solubility.
The target of series [10] is Platelet-derived growth factor receptor beta (Homo sapiens) (UniProt P09619). The experiment in a line: Inhibition of recombinant His-tagged human PDGFRbeta (558 to 1106 residues) cytoplasmic domain expressed in baculovirus expression system at 10 uM in presence of ATP relative to control.
Platelet-derived growth factor receptor beta (Homo sapiens), sequence (P09619 whole entry, the tested form may be a part): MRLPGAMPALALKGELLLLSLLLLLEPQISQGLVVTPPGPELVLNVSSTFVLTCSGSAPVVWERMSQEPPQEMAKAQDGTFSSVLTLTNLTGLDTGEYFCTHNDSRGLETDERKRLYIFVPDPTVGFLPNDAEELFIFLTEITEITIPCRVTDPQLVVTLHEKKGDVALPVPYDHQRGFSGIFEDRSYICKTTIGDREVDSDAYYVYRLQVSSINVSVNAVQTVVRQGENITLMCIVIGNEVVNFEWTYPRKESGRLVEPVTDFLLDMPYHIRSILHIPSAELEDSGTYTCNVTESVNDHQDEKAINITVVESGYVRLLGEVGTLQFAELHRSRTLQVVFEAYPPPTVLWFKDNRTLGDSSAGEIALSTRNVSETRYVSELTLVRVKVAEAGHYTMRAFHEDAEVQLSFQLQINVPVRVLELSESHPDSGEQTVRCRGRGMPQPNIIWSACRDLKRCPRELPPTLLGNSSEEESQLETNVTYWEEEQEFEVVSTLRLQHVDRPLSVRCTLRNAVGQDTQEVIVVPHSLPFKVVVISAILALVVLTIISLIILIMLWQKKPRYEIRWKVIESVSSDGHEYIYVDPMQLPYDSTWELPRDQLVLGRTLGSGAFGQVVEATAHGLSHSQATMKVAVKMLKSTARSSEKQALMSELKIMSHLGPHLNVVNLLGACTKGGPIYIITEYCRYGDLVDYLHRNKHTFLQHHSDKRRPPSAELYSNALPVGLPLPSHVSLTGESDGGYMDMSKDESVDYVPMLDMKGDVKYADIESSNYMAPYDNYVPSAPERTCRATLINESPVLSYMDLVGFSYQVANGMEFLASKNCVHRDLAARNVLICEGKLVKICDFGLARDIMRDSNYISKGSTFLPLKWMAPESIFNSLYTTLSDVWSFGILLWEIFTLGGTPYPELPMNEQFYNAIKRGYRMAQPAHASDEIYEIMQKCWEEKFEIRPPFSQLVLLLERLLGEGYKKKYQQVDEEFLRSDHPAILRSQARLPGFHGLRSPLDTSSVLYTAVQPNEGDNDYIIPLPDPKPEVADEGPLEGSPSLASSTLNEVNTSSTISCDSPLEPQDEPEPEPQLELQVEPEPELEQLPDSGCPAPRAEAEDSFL
In series [11] the target is 5-hydroxytryptamine receptor 1A (Homo sapiens, UniProt P08908). Nature of the series: Displacement of [3H]8-OH-DPAT from recombinant human 5-HT1A receptor after 60 mins by scintillation counting analysis.
5-hydroxytryptamine receptor 1A, sequence (P08908 whole entry): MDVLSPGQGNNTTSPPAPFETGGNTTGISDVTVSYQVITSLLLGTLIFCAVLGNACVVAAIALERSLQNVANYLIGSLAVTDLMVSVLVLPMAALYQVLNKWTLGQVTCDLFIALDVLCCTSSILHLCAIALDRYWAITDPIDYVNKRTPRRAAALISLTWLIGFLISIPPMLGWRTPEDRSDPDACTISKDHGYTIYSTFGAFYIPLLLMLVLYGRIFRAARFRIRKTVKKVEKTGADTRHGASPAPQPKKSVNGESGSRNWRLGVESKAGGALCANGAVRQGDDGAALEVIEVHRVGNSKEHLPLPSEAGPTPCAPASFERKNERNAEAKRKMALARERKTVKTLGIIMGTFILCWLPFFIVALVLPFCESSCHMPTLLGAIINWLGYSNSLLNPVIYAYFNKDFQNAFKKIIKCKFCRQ
The target of series [12] is T2, Nuclear receptor ROR-gamma. The experiment in a line: Inverse agonist activity at RORgammat in human CD4 positive T cells assessed as inhibition of IL17A production in human Th17 cells after 1 hr. In kind it is cell-based.
Series [13] deals with Tyrosine-protein kinase JAK3 (Homo sapiens) (UniProt P52333). Nature of the series: Inhibition of recombinant GST-tagged human JAK3 catalytic domain (781 to 1124 residues) expressed in baculovirus expression system at 10 uM in presence of ATP relative to control.
Tyrosine-protein kinase JAK3 (Homo sapiens), sequence (P52333 whole entry, the tested form may be a part): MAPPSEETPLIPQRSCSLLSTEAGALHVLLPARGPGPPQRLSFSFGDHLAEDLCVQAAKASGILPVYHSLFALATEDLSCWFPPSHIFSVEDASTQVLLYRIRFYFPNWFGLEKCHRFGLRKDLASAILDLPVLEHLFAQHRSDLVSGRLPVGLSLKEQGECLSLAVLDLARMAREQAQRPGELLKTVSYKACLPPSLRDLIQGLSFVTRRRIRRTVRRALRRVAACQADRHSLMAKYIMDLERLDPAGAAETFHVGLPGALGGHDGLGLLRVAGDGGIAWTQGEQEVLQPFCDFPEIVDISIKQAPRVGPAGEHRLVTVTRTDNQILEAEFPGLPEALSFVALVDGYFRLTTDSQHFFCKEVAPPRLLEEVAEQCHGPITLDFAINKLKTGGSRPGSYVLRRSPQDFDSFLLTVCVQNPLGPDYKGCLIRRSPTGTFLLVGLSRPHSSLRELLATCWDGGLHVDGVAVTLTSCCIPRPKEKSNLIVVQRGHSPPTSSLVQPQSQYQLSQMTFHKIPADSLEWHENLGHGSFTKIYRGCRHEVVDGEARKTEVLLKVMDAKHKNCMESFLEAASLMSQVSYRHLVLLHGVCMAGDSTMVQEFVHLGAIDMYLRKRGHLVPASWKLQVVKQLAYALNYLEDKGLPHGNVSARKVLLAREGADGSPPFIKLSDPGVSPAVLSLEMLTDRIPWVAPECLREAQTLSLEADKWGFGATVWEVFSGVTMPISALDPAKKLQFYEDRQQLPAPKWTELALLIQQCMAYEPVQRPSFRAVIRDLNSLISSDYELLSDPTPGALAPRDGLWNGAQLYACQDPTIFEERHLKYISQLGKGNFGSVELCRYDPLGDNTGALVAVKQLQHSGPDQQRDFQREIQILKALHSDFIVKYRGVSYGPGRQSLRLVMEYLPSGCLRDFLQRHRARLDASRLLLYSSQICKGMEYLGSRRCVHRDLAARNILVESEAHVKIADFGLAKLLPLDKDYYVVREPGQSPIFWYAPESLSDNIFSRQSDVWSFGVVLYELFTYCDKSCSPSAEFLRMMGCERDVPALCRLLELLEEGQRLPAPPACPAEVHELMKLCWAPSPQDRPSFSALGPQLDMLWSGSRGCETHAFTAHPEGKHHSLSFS
In series [14] the target is Protein kinase C beta type (Homo sapiens) (UniProt P05771). The experiment in a line: Inhibition of PKCbeta1 (unknown origin) at 10 uM in presence of ATP relative to control.
The target in series [15] is Muscarinic acetylcholine receptor M2 (Homo sapiens) (UniProt P08172). Nature of the series: Displacement of [3H]AF-DX 384 from human recombinant M2 receptor at 1 uM after 60 mins by scintillation counting analysis relative to control.
Series [16] addresses Neuropeptide Y receptor type 2 (Homo sapiens, UniProt P49146). Nature of the series: Displacement of [125I]peptide YY from human Y2 receptor after 120 mins by scintillation counting analysis.
The target of series [17] is Sodium-dependent dopamine transporter (Homo sapiens) (UniProt Q01959). Nature of the series: Displacement of [3H][…] from recombinant human Dopamine transporter at 10 uM after 120 mins by scintillation counting analysis relative to control.
Sodium-dependent dopamine transporter (Homo sapiens), sequence (Q01959 whole entry): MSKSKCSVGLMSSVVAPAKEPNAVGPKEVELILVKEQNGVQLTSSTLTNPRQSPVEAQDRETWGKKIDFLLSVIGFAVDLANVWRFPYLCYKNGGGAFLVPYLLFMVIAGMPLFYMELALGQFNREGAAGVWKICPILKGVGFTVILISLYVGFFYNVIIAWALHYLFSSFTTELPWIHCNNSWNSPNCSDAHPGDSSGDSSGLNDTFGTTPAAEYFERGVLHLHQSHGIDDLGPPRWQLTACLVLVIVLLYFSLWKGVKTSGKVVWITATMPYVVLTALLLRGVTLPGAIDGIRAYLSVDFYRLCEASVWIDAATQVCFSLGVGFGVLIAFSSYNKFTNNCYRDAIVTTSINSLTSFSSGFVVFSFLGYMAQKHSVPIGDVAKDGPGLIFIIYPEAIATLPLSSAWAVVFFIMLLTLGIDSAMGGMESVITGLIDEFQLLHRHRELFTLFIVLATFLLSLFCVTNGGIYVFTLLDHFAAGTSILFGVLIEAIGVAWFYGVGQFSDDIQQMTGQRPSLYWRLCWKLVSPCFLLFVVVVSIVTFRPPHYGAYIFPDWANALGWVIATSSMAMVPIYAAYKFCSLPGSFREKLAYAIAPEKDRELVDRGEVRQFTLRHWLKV
The next series has as its target Melanocortin receptor 4 (Homo sapiens, UniProt P32245). The experiment in a line: Displacement of [125I]NDP-alpha-MSH from human recombinant MC4 receptor at 1 uM after 120 mins by scintillation counting analysis relative to control.
Series [18] deals with Adenosine receptor A1 (Homo sapiens) (UniProt P30542). The experiment in a line: Displacement of [3H]-DPCPX from human recombinant adenosine A1 receptor at 1 uM after 60 mins by scintillation counting analysis relative to control.
Series [19] can be described thus: Oral bioavailability in Sprague-Dawley rat at 5 mg/kg. In kind it is ADME, organism-based. The conditions noted are these: in vivo.
For series [20], the target named is Serine/threonine-protein kinase Chk1 (Homo sapiens) (UniProt O14757). The experiment in a line: Inhibition of recombinant full length His-tagged human CHK1 expressed in baculovirus expression system at 10 uM in presence of ATP relative to control.
Serine/threonine-protein kinase Chk1 (Homo sapiens), sequence (O14757 whole entry): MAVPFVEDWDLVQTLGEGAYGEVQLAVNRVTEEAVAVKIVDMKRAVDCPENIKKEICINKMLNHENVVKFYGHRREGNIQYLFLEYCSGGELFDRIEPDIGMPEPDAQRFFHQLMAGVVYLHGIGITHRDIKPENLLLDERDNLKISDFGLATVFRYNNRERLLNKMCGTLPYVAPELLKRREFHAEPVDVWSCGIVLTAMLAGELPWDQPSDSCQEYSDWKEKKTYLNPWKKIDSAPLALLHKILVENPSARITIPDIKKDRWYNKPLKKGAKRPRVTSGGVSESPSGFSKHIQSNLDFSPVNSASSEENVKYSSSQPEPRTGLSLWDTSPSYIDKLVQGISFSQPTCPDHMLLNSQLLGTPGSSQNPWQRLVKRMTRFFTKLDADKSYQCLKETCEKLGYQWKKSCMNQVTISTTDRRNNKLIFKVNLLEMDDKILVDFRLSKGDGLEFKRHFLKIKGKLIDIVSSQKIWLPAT

The term inhibition denotes the drop in the measured response relative to a control, in per cent. As a reminder, the IC50 is the point on the concentration scale where inhibition reaches its midpoint. By Kd is commonly meant the equilibrium constant for the complex coming apart. One may read the EC50 as the concentration needed to bring the measured effect to its halfway point. The bioavailability is the share of a dose that reaches the circulation, judged against a reference dose that is usually intravenous.

Melanocortin receptor 4, sequence (P32245 whole entry): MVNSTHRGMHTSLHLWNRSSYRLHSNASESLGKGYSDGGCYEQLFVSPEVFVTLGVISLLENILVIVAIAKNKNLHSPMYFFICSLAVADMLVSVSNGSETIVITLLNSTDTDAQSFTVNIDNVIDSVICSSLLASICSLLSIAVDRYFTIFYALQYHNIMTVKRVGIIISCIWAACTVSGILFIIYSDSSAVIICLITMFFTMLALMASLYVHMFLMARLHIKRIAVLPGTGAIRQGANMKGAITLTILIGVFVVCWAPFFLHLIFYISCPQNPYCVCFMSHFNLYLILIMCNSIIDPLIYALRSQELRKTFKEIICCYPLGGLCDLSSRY

With `CC(C)(C)NS(=O)(=O)c1ccc(-c2sc(C(=O)N[C@H]3C[C@H](C(=O)O)C3)nc2CC2CCCCC2)c2ccccc12`, the INH on Cytochrome P450 1A2 is above 10 µM. Further, the inhibition in series [1] was below 10%; in the series filed under Rattus norvegicus it was below 10%; in series [10], -4%; in series [13], -3%; in series [14], -2%; in [15], below 10%. In addition, the inhibition was 47% in series [17], below 10% on Melanocortin receptor 4, below 10% in [18] and 1% in series [20]. Also, the IC50 in [2] amounted to 297 nM; in series [3], 1.1 nM; in series [4], 106 nM; in series [6], 3.4 nM; in series [7], 0.94 nM; in series [8], 43 nM. The IC50 in series [11] was found to be 0.43 nM; in series [16], 0.28 nM. Besides, in [5], the Kd turned out to be 0.12 nM. For the same molecule, the solubility thermodynamic in series [9] was above 400 µM. Further, in series [12], the EC50 turned out to be 2.8 nM. In addition, in [19], the bioavailability stood at 20%.
